Measurements as given in US20100234238A1, “METHOD FOR PROFILING KINASE INHIBITORS” (Janssen Pharmaceutica N V, priority 2006, published 2010).

Test system: tyrosine kinase activity in lysates prepared from cell lines
Experiment: PAMCHIP96 tyrosine peptide array profiling of lysates of 27 cell lines in absence or presence of MTKI
Type: biochemical
Conditions: 5 μM
Excerpt: PAMGENE technology using the tyrosine peptide PAMCHIP96 allows the kinetic detection of the phosphorylation of 144 tyrosine peptides spotted onto a 3-dimensional porous well of a 96-well plate (www.pamgene.com). This technology can be used to measure the activity of purified kinases and the effects of kinase inhibitors thereon. Phosphotyrosine peptides are detected using a mix of fluorescently labeled anti-phosphotyrosine antibodies. Phosphorylation of peptides can be followed in real time due to the possibility of removing the reaction mix for a few seconds during the assay by a pumping mechanism to allow CCD camera detection of phosphopeptides bound to the fluorescent antibody. These consecutive datapoints (quantified spot images) generate a kinetic curve for each individual peptide, and allow for the calculation of initial velocities and endpoints associated with each individual peptide.
Cells cultured in appropriate medium in T175 flasks, treated with compound if necessary, are harvested at 70-90% confluency.
Media is removed, cells are washed with 10 ml ice cold PBS containing 0.1 mM NaVO4 and lysed in 1 ml of M-PER buffer (PIERCE) containing phosphatase and protease inhibitors (HALT, PIERCE). Cells are collected by scraping, and centrifuged for 10 minutes at 12 000×g. Supernatant lysates are filtered through a 0.2 micrometer filter (Anotop 0.2 μm anopore filter; Whatmann). Lysates are flash frozen in liquid nitrogen and stored at −80C.
Just prior to the PAMCHIP experiment, total protein content is quantitated in the lysates and lysates are diluted to 1 mg/ml in a total volume of 200 μl, with M-PER phosphatase and protease inhibitors (HALT, PIERCE). 10 μg of total lysate (corresponding to 10 μl) will be used per well on the PAMCHIP96.
To all 200 μl lysates 10 units of benzonase (Novagen) is added and lysates are further incubated for 30 min on ice and next centrifuged for 10 minutes at 12 000×g. The supernatant is then 1:1 diluted with compound or DMSO diluted to the appropriate concentration in water, and lysates are further incubated exactly 60 min on ice. Meanwhile, a PAMCHIP96 tyrosine peptide chip (PAMGENE) is blocked with 2% BSA (filtered through a 0.2 μm anopore filter; Whatmann) using the standard setting of a PAMSTATION96 (PAMGENE).
The composition of the kinase buffer is as follows: 1×ABL buffer (NEB), 0.5 mg/ml BSA (from 10 mg/ml NEB stock), 100 μM ATP (dissolved and diluted in 1×ABL buffer), 5 μg/ml PY20-FITC (ExAlpha Biologicals, azide-free preparation). A twofold concentrated kinase buffer is prepared chilled on ice, DMSO or compound is added as appropriate, and the solution is added 1:1 to the (compound treated) ice cold lysates, and immediately applied to a tyrosine peptide PAMCHIP96. The assay is run on a PAMSTATION96 according to standard procedures: after loading of the plate, solution is pumped once onto the wells, a first exposure is read (150 mSec) and then a kinetic reading program (reading every 5 min for 150 mSec) is run for 60 min. Lysates are run in 6 technical replicates for each condition; replicates are always applied horizontally next to each other to avoid vertical strip effects of the chip.
The data (spot images) are further quantified and linked to the peptide identities using EVOLVE PAMGRID software (PAMGENE). The quantified data are then fit to a curve using CurveFitHT software (PAMGENE) using the Vinip2 curve fitting algorithm, applied on the first 30 min of the assay; the initial velocity is derived at the first kinetic time point read. All subsequent data analyses were done on initial velocities (Vini) using the software packages Omniviz and R (Ihaka, R. and Gentlemen, R. (1996) R: a language for data analysis and graphics. J. Comput. Graph. Stat., 5, 299-314).
After replacing the Vini's lower than 0.1 by 0.1, all Vini's were log 2-transformed to approach normality.

For `COc1cc2ncnc3c2cc1OCCCCCN(C)Cc1ccc(Br)cc1N3` [MTKI, 4,6-ethanediylidenepyrimido[4,5-b][6,1,12]benzoxadiazacyclopentadecine, 17-bromo-8,9,10,11,12,13,14,19-octahydro-20-methoxy-13-methyl-], the “ratio of initial velocity of peptide phosphorylation” value (from here on “ratio”) (A431 lysate, CDK7_157_169_S164) was 0.53, the “ratio” value (A431 lysate, CREB1_122_134_Y134/S133) was 0.63 and the “ratio” value (A431 lysate, DDR2_733_745_Y740) was 0.56. The “ratio” value (A431 lysate, MK10_216_228_T221/Y223) was 0.46, the “ratio” value (A431 lysate, NCF1_313_325_S315/S320) was 0.57 and the “ratio” value (A431 lysate, NPT2_501_513_T508) was 0.53. The “ratio” value (A431 lysate, PECA1_706_718_Y713) was 0.72, the “ratio” value (A431 lysate, PGFRB_768_780_Y771/Y775/Y778) was 0.97 and the “ratio” value (A431 lysate, PLCG1_764_776_Y771) was 0.82. The “ratio” value (A431 lysate, PRRX2_202_214_Y214) was 0.75, the “ratio” value (A431 lysate, RASA1_453_465_Y460) was 0.62 and the “ratio” value (A431 lysate, STAT2_683_695_Y690) was 0.57. For the same molecule, the “ratio” value (A431 lysate, SYN1_2_14_S9) was 0.58, the “ratio” value (A431 lysate, TYRO3_679_691_Y686) was 0.52 and the “ratio” value (H322 lysate, CDK7_157_169_S164) was 0.88. The “ratio” value (H322 lysate, CREB1_122_134_Y134/S133) was 0.94, the “ratio” value (H322 lysate, DDR2_733_745_Y740) was 0.85 and the “ratio” value (H322 lysate, ENOG_37_49_Y43) was 0.76. For the same molecule, the “ratio” value (H322 lysate, MK10_216_228_T221/Y223) was 0.76, the “ratio” value (H322 lysate, NCF1_313_325_S315/S320) was 0.88 and the “ratio” value (H322 lysate, NPT2_501_513_T508) was 0.88. The “ratio” value (H322 lysate, PECA1_706_718_Y713) was 0.73, the “ratio” value (H322 lysate, PGFRB_768_780_Y771/Y775/Y778) was 0.92 and the “ratio” value (H322 lysate, PLCG1_764_776_Y771) was 0.79. The “ratio” value (H322 lysate, PRRX2_202_214_Y214) was 0.85, the “ratio” value (H322 lysate, RASA1_453_465_Y460) was 0.83 and the “ratio” value (H322 lysate, STAT2_683_695_Y690) was 0.89. For the same molecule, the “ratio” value (H322 lysate, SYN1_2_14_S9) was 0.91, the “ratio” value (H322 lysate, TYRO3_679_691_Y686) was 0.96 and the “ratio” value (H2122 lysate, CDK7_157_169_S164) was 0.90. The “ratio” value (H2122 lysate, CREB1_122_134_Y134/S133) was 0.85, the “ratio” value (H2122 lysate, DDR2_733_745_Y740) was 0.81 and the “ratio” value (H2122 lysate, ENOG_37_49_Y43) was 0.71. The “ratio” value (H2122 lysate, MK10_216_228_T221/Y223) was 0.79, the “ratio” value (H2122 lysate, NCF1_313_325_S315/S320) was 0.94 and the “ratio” value (H2122 lysate, NPT2_501_513_T508) was 0.90. For the same molecule, the “ratio” value (H2122 lysate, PECA1_706_718_Y713) was 0.67, the “ratio” value (H2122 lysate, PLCG1_764_776_Y771) was 0.76 and the “ratio” value (H2122 lysate, PRRX2_202_214_Y214) was 0.84. For the same molecule, the “ratio” value (H2122 lysate, RASA1_453_465_Y460) was 0.78, the “ratio” value (H2122 lysate, STAT2_683_695_Y690) was 0.90 and the “ratio” value (H2122 lysate, SYN1_2_14_S9) was 0.91. For the same molecule, the “ratio” value (H2122 lysate, TYRO3_679_691_Y686) was 0.95, the “ratio” value (H3255 lysate, CDK7_157_169_S164) was 0.55 and the “ratio” value (H3255 lysate, CREB1_122_134_Y134/S133) was 0.73. The “ratio” value (H3255 lysate, DDR2_733_745_Y740) was 0.44, the “ratio” value (H3255 lysate, ENOG_37_49_Y43) was 0.76 and the “ratio” value (H3255 lysate, MK10_216_228_T221/Y223) was 0.47. For the same molecule, the “ratio” value (H3255 lysate, NCF1_313_325_S315/S320) was 0.59 and the “ratio” value (H3255 lysate, NPT2_501_513_T508) was 0.68.
